Values quoted from earlier work in US20090010992A1 (priority 2007, published 2009).

Settings: oral cherry-flavored syrup (Versed syrup)

Structure (SMILES): Cc1ncc2n1-c1ccc(Cl)cc1C(c1ccccc1F)=NC2 [midazolam]
- bioavailability (erratic): 30-50%
